# Laboratory results taken from PMC5353646, “Allosteric modulation of peroxisomal membrane protein recognition by farnesylation of the peroxisomal import receptor PEX19” (Nature Communications, 2017).
# How the values were obtained:
# [1] = system: PEX19 CTD I195K; assay: Fluorescence polarization, ALDP peptide binding to PEX19 CTD I195K; design: species or system human; conditions: with or without farnesylation, FITC-labelled ALDP peptide 20 nM, triplicate (n = 3)
# Method: (§1) ALDP peptide (62-AAKAGMNRVFLQRLL-76) fused N-terminally with fluorescein isothiocyanate (FITC), was purchased from Peptide Specialty Laboratories GmbH. The lyophilized powder was dissolved in 1 ml water resulting in a 5 mM stock solution. Overnight dialysis against buffer containing 50 mM Tris pH 8.0, 50 mM NaCl, removed trifluoroacetate counterions. For the determination of each binding curve a 12 point titration was performed with constant concentration of 20 nM labelled peptide with increasing concentrations of PEX19 CTD variants. Starting concentration of PEX19 CTD was 1 mM with 12 serial dilutions reaching 0.5 μM. Reaction mixtures were then transferred into 96-well Optiplate and measured as triplicates in PerkinElmer EnVision plate reader. […]
# (§2) Supplementary Figure 6: ALDP af finity measurement for PEX19 CTD proteins using a fluorescence polarization assay . Polarization plots as a function of protein concentration for the direct titration of PEX19 non-farnesylated (black) and farnesylated (red) forms (wild type and residue spedific mutants) into fluorescein-labeled ALDP peptide. […]
# (§3) (also on this page, place not known: assay. affinity Fluorescence polarization (mP) wt wtfarn Fluorescence polarization (mP) M179Rfarn 0.00 1.00 Fluorescence polarization (mP) M255Rfarn 0.00 1.00 Fluorescence polarization (mP) I195Kfarn Kd Kd /uni03BCM)
# [2] = system: PEX19 CTD M179R; assay: Fluorescence polarization, ALDP peptide binding to PEX19 CTD M179R; design: species or system human; conditions: with or without farnesylation, FITC-labelled ALDP peptide 20 nM, triplicate (n = 3)
# Method: as §1, §2, §3
# [3] = NMR 13C secondary chemical shifts (peptide conformation); type: physicochemical; conditions: C-terminally extended version of the ALDP peptide with additional tryptophan (residue 68 to 82)
# Excerpt: Phe71 aromatic ring protons
# Residue number Leucine residue
# Supplementary Figure 8: Intermolecular NOEs between PEX19 CTD and the ALDP peptide, and secondary structure of the latter. (a) 1H,1H plane of a 3D ω1-filtered, ω2-edited 13C-NOESY-HSQC experiment of farnesylated PEX19 CTD free (black) and bound to the ALDP peptide (red). Methyl and methylene protons of the unlabeled farnesyl group of the PEX19 CTD show NOEs with protons of the isotope-labeled farnesylated PEX19 CTD (black circles). In the presence of also unlabeled ALDP peptide additional intermolecular methyl-methyl and aliphatic-aromatic NOEs are observed (red circles and below). (b) NMR 13C secondary chemical shifts of a C-terminally extended […]
# tion. (c) Due to signal overlap, 5 out of 7 spin systems for leucine residues were assigned. Nevertheless, also the leucines residues adopt a helical conformation.
# (also on this page, place not known: (Leu75)(Leu76) (Leu81)(Leu82) 5 LeuC Cα- Cβ [p.p.m.] Cα- Cβ [p.p.m.] c ω2 ω1 1H (p.p.m.) ω1 1H (p.p.m.) QDPro273/Pro274 { - - { 5)
# [4] = molecular target: T1, farnesylated PEX19 CTD (Homo sapiens, UniProt P40855); assay: NMR titration of farnesylated PEX19 CTD with PMP peptides; type: binding; conditions: 1H,15N HSQC; 298 K; ALDP at 5 and 10 molar ratio with 100 μM PEX19 CTD; PEX13 at 1:1.5 and 1:0.5 with 50 μM
# T1 construct: we studied the human PEX19 CTD (residues 161–299) that includes the native C-terminus; hexahistidine (TEV-cleavable) (cleaved yes); made in house; host or cells: Escherichia coli BL21 (DE3); farnesylated in vitro with recombinant S. cerevisiae farnesyl transferase
# T1 sequence (P40855 161-299): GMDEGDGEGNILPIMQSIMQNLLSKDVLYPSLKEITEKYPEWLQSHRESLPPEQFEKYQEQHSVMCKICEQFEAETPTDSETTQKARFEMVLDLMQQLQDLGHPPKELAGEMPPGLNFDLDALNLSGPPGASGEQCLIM
# [5] = molecular target: T2, non-farnesylated PEX19 CTD (Homo sapiens, UniProt P40855); assay: NMR titration of non-farnesylated PEX19 CTD with PMP peptides; type: binding; conditions: 100 μM PEX19 CTD; peptide molar ratio up to 10:1; 1H,15N HSQC; 298 K
# T2 construct: we studied the human PEX19 CTD (residues 161–299) that includes the native C-terminus; hexahistidine (TEV-cleavable) (cleaved yes); made in house; host or cells: Escherichia coli BL21 (DE3)
# T2 sequence (P40855 161-299): T1 sequence (P40855 161-299)
# Method: Figure 4 NMR analysis of PMP binding to non-farnesylated and farnesylated PEX19 CTD. (a) Comparison of ^1H,^15N HSQC spectra of 100 μM non-farnesylated CTD free (black) and in the presence of 10-fold excess of the ALDP-derived peptide (cyan). (b) Comparison of ^1H,^15N HSQC spectra of 100 μM farnesylated PEX19 CTD free (black) and in the presence of 5 (green) and 10 (red) molar ratio of the ALDP peptide. The grey dashed line indicates the position of additional baseline correction applied to remove noise from DMF signals in the peptide stock solution. (c) Chemical shift perturbation of Met/Ile methyl groups seen in ^1H,^13C HSQC experiments upon increasing concentration of ALDP peptide. […] (d) Quantification of chemical shift perturbation (CSP) of amide and methyl groups with respect to the PEX19 amino acid sequence. […] Grey colour refers to residues, which could not be analysed.
# NMR spectra were acquired at 298 K on a Bruker Avance III 600-MHz spectrometer with a TCI cryo-probe head, an Avance III 750-MHz spectrometer with a TXI probe head, or an Avance 900 instrument with a TXI cryo-probe head. Spectra were processed using NMRPipe[31] and analysed with Sparky[32]. […] Backbone and side chain assignments were obtained from HNCA, HNCACB, CBCA(CO)NH, H(C)CH-TOCSY and (H)CCH-TOCSY spectra. ^13C- and ^15N- edited NOESY spectra with a mixing time of 70 ms were recorded to derive distance restraints. […]
# [6] = system: PEX19 CTD M255R; assay: Fluorescence polarization, ALDP peptide binding to PEX19 CTD M255R; design: species or system human; conditions: with or without farnesylation, FITC-labelled ALDP peptide 20 nM, triplicate (n = 3)
# Method: as §1, §2, §3
# [7] = molecular target: T3, farnesylated wild type PEX19 CTD (Homo sapiens, UniProt P40855); assay: Fluorescence polarization, ALDP peptide binding to farnesylated wild type PEX19 CTD
# T3 construct: we studied the human PEX19 CTD (residues 161–299) that includes the native C-terminus; hexahistidine (TEV-cleavable) (cleaved yes); made in house; host or cells: Escherichia coli BL21 (DE3); farnesylated in vitro with recombinant S. cerevisiae farnesyl transferase
# T3 sequence (P40855 161-299): T1 sequence (P40855 161-299)
# Method: as §1, §2
# standard deviations for triplicate measurements (n = 3).
# as §3
sequence,measurement,setting,value
"AAKAGMNRVFLQRLL [ALDP peptide, peptide, residues 62–76 of human ALDP]",binding to PEX19 CTD I195K,[1],impaired binding
same,binding to PEX19 CTD M179R,[2],impaired binding
same,helical conformation of free peptide,[3],preformed helical conformation
same,NMR chemical shift perturbations / line broadening of farnesylated PEX19 CTD,[4],distinct chemical shift perturbations
same,NMR spectral changes of non-farnesylated PEX19 CTD,[5],no significant spectral changes
same,binding to PEX19 CTD M255R,[6],impaired binding
same,affinity (in words),[7]; farnesylated PEX19 CTD,micromolar affinity
same,increase in affinity upon farnesylation of wild type PEX19 CTD,[7]; ratio farnesylated vs non-farnesylated wild type PEX19 CTD,seven
